# Experimental data taken from patent US20240156854A1, “METHYLCOBALAMIN OPHTHALMIC PREPARATION AND USE THEREOF” (EYE INSTITUTE OF SHANDONG FIRST MEDICAL UNIVERSITY, priority 2022, published 2024).
# Key:
# [1] = test system: Mouse model of neurotrophic keratitis; test: Confocal laser microscope imaging of corneal nerves (β-tubulin III staining) in mouse model of neurotrophic keratitis; format: in vivo, C57BL/6 mice; conditions: 14 d after the operation
# Experimental: (§1) (1) C57BL/6 mice, 6 to 8 weeks old, male, weighing 20 g to 25 g, were purchased from Beijing Vital River Laboratory Animal Technology Co., Ltd. Animal breeding was conducted in the Animal Laboratory of the Eye Institute of Shandong First Medical University. The temperature was controlled at 22±2° C., the humidity was controlled at 60±10%, a light and dark cycle was 12 h, and food and drink were given ad libitum.
# (2) Experimental grouping: 30 of 6- to 8-week-old C57BL/6 male mice (body weight 20 g to 25 g) were randomly divided into 5 groups, 6 in each group, respectively: • 1. A control group • 2. An eye drop group with the control methylcobalamin ophthalmic drop Comparative Example 1 • 3. An eye drop group with a recombinant human nerve growth factor • 4. An eye drop group with methylcobalamin+proanthocyanidin (Example 1) • 5. A subconjunctival implantation group with a methylcobalamin hydrogel (Example 2) […]
# Samples were taken 14 d after the operation. […] The cornea was washed 6 times with PBS, 10 min each time, the corneal epithelium was spread upward, and sealed with DAPI-containing anti-fluorescence quenching buffered glycerin, stored in the dark, and then imaged with a confocal laser microscope.
# [2] = test system: Mouse model of neurotrophic keratitis; test: Slit lamp photography of the eye in mouse model of neurotrophic keratitis; format: in vivo, C57BL/6 mice; conditions: day 7, slit lamp; eye drops 4 times a day or subconjunctival hydrogel implant (about 0.02 mg)
# Experimental: as §1
# (2) Experimental grouping: 30 of 6- to 8-week-old C57BL/6 male mice (body weight 20 g to 25 g) were randomly divided into 5 groups, 6 in each group, respectively: • 1. A control group • 2. An eye drop group with the control methylcobalamin ophthalmic drop Comparative Example 1 • 3. An eye drop group with a recombinant human nerve growth factor • 4. An eye drop group with methylcobalamin+proanthocyanidin (Example 1) • 5. A subconjunctival implantation group with a methylcobalamin hydrogel (Example 2)
# The mice were intraperitoneally anesthetized with a 0.6% pentobarbital sodium solution (1 ml/100 g), fixed on an operating table in a lateral position, and the bulbar conjunctiva was incised 90 degrees along the temporal corneoscleral limbus with Vannas scissors. The retroorbital venous plexus should not be damaged. […]
substance,measurement,setting,value
"recombinant human nerve growth factor: recombinant human nerve growth factor eye drops, comparator group",regeneration of corneal nerve endings,[1],regenerated
same,corneal neovascularization,[2],not obvious
